# Columns and labels:
# Human δ-opioid (DOP) = target: T1, Human δ-opioid (DOP) (Homo sapiens, UniProt P41143); assay: Radioligand binding, human δ-opioid (DOP) membranes, FlashPlate, [3H]-Bremazocine; details: compound at 10 μM; [3H]-Bremazocine, FlashPlate
# T1 construct: purchased Perkin Elmer Biosignal
# Outline: (§1)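 Cloned human receptor membranes were coated onto FlashPlate wells and incubated with radioligand and compound (added from a 0.5 mM DMSO daughter plate) for 1 hour at room temperature in the dark. Scintillation counting gave percent inhibition, with DMSO defining total and reference ligand defining non-specific binding.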
# Human κ-Opioid (KOP) = target: T2, Human κ-Opioid (KOP) (Homo sapiens, UniProt P41145); assay: Radioligand binding, human κ-opioid (KOP) membranes, filtration, [3H]-Diprenorphine; details: compound at 10 μM; [3H]-Diprenorphine, filtration
# T2 construct: purchased Perkin Elmer Biosignal
# Outline: (§2)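 Percent inhibition of radioligand binding measured on recombinant human membranes: NK1 with [125I]-Substance P, KOP with [3H]-Diprenorphine. Incubation 1 h at room temperature, then harvest onto 0.3% PEI-soaked filters, cold Tris-HCl pH 7.4 washes and scintillation counting; non-specific binding from reference ligand wells.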
# Human Melanocortin (MC3) = target: T3, Human Melanocortin (MC3) (Homo sapiens, UniProt P41968); assay: Radioligand binding, human melanocortin MC3 membranes, FlashPlate, [125I]-NDP-αMSH; details: compound at 10 μM; [125I]-NDP-αMSH, FlashPlate
# T3 construct: purchased Perkin Elmer Biosignal
# Outline: as §1
# Human Melanocortin (MC4) = target: T4, Human Melanocortin (MC4) (Homo sapiens, UniProt P32245); assay: Radioligand binding, human melanocortin MC4 membranes, FlashPlate, [125I]-NDP-αMSH; details: compound at 10 μM; [125I]-NDP-αMSH, FlashPlate
# T4 construct: purchased Perkin Elmer Biosignal
# Outline: as §1
# Human melanocortin (MC5) = target: T5, Human melanocortin (MC5) (Homo sapiens, UniProt P33032); assay: Radioligand binding, human melanocortin MC5 membranes, FlashPlate, [125I]-NDP-αMSH; details: compound at 10 μM; [125I]-NDP-αMSH, FlashPlate
# T5 construct: purchased Perkin Elmer Biosignal
# Outline: as §1
# [1] = target: T6, Human melanin-concentrating hormone (MCH1) (Homo sapiens, UniProt Q99705); assay: Radioligand binding, human melanin-concentrating hormone MCH1 membranes, FlashPlate, [125I]-S36057; details: compound at 10 μM; [125I]-S36057, FlashPlate
# T6 construct: purchased Perkin Elmer Biosignal
# Outline: as §1
# Human μ-opioid (MOP) = target: T7, Human μ-opioid (MOP) (Homo sapiens, UniProt P35372); assay: Radioligand binding, human μ-opioid (MOP) membranes, FlashPlate, [3H]-Naloxone; details: compound at 10 μM; [3H]-Naloxone, FlashPlate
# T7 construct: purchased Perkin Elmer Biosignal
# Outline: as §1
# Human neurokinin (NK1) = target: T8, Human neurokinin (NK1) (Homo sapiens, UniProt P25103); assay: Radioligand binding, human neurokinin NK1 membranes, filtration, [125I]-Substance P; details: compound at 10 μM; [125I]-Substance P, filtration
# T8 construct: purchased Perkin Elmer Biosignal
# Outline: as §2
# [2] = target: T9, Human neuropeptide Y (NPY-Y1) (Homo sapiens, UniProt P25929); assay: Radioligand binding, human neuropeptide Y NPY-Y1 membranes, FlashPlate, [125I]-PYY; details: compound at 10 μM; [125I]-PYY, FlashPlate
# T9 construct: purchased Perkin Elmer Biosignal
# T9 sequence (P25929 1-384): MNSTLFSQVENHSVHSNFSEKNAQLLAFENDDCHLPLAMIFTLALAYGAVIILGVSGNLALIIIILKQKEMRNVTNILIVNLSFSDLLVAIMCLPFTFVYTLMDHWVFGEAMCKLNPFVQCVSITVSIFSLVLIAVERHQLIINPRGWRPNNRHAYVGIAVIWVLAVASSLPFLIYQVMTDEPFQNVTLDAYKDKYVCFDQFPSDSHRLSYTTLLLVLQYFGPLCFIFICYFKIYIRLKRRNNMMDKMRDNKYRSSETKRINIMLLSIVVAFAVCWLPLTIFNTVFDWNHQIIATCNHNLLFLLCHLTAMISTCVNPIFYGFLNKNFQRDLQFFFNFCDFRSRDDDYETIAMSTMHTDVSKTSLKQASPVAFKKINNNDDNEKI
# Outline: as §1
# Human opioid (ORL1) = target: T10, Human opioid (ORL1) (Homo sapiens, UniProt P41146); assay: Radioligand binding, human opioid ORL1 membranes, FlashPlate, [125I]-Nociceptin; details: compound at 10 μM; [125I]-Nociceptin, FlashPlate
# T10 construct: purchased Perkin Elmer Biosignal
# Outline: as §1
# Mouse urotensin (mUR2) = target: T11, Mouse urotensin (mUR2) (Mus musculus, UniProt Q8VIH9); assay: Radioligand binding, mouse urotensin mUR2 membranes, FlashPlate, [125I]-Urotensin II; details: compound at 10 μM; [125I]-Urotensin II, FlashPlate
# T11 construct: purchased Perkin Elmer Biosignal
# T11 sequence (Q8VIH9 1-385): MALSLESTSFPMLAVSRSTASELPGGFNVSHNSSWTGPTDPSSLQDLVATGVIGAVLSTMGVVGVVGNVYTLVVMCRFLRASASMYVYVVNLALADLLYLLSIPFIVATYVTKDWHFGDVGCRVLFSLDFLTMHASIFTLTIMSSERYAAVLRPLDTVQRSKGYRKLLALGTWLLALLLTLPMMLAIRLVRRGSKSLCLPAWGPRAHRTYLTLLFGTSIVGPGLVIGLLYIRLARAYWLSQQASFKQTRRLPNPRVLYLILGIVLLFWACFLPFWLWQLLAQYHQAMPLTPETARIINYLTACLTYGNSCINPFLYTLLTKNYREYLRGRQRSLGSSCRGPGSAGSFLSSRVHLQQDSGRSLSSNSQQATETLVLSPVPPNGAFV
# Outline: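 Cloned mouse urotensin (mUR2) receptor membranes from Perkin Elmer Biosignal were immobilized in FlashPlate microplates using a proprietary coating. Each well got 19.5 μl buffer, then 0.5 μl of DMSO, reference ligand, or compound. Adding 5 μl of [125I]-Urotensin II, diluted to 5× final concentration in binding buffer, started binding. Plates were sealed with TopSeal-A and incubated 1 hour at room temperature in the dark. Wells were counted for 30 seconds each on a TopCount after a 60-second delay, and percentage inhibition was calculated.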
# T5 sequence (P33032 whole entry): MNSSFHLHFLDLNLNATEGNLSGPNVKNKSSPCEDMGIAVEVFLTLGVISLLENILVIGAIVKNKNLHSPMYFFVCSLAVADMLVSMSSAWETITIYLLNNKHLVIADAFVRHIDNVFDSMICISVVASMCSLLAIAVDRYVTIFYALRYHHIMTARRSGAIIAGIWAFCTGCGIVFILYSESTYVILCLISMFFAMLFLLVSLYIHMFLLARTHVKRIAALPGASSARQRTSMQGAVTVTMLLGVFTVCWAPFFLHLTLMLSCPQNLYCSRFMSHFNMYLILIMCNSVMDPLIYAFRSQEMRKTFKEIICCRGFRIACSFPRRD
# T8 sequence (P25103 whole entry): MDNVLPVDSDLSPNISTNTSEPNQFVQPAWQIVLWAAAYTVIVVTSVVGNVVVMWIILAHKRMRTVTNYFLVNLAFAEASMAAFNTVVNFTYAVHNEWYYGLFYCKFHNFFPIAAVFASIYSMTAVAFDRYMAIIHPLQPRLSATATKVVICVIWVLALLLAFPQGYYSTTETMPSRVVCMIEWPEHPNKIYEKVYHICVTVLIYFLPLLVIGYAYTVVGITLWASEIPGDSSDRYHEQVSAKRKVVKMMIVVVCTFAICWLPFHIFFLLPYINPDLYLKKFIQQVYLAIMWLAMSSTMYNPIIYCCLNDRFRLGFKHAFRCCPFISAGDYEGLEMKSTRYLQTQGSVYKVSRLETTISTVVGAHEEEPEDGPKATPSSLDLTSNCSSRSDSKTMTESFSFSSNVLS
# T7 sequence (P35372 whole entry): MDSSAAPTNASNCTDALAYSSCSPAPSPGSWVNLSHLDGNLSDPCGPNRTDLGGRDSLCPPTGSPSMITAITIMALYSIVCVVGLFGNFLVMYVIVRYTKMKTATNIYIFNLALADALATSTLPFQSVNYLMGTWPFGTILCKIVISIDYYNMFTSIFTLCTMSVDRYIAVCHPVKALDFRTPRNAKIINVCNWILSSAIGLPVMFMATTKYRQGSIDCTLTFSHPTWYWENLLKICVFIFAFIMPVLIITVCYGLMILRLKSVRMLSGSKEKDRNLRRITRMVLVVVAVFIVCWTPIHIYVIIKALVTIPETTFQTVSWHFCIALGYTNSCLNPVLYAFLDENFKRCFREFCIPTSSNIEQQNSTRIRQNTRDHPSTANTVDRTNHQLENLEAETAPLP
# T4 sequence (P32245 whole entry): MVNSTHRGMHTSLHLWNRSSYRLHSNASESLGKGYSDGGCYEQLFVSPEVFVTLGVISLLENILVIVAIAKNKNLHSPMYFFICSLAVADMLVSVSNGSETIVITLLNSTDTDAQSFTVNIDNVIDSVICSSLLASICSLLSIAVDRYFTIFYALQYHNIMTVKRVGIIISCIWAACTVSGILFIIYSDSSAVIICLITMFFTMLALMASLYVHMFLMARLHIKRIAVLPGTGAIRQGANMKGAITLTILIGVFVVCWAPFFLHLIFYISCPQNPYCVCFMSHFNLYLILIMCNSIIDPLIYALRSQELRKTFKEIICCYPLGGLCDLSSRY
# T3 sequence (P41968 whole entry): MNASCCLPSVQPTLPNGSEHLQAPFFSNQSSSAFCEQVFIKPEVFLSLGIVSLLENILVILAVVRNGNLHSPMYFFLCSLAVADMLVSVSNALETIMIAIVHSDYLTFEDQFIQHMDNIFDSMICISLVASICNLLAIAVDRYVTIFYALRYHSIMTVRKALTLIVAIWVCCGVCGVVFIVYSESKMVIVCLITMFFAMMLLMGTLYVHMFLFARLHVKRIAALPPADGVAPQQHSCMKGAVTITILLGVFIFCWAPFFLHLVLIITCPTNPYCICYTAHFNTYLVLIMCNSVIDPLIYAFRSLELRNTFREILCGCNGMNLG
# T2 sequence (P41145 whole entry): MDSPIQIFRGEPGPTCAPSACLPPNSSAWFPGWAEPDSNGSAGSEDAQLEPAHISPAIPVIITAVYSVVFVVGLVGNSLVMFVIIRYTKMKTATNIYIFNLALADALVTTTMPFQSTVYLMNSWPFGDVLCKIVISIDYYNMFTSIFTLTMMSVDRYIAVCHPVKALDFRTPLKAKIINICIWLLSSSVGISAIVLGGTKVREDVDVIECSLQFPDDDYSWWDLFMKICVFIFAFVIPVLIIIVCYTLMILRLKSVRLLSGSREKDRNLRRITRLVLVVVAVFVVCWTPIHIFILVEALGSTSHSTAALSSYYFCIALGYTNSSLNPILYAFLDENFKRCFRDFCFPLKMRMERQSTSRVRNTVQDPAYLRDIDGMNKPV
# T10 sequence (P41146 whole entry): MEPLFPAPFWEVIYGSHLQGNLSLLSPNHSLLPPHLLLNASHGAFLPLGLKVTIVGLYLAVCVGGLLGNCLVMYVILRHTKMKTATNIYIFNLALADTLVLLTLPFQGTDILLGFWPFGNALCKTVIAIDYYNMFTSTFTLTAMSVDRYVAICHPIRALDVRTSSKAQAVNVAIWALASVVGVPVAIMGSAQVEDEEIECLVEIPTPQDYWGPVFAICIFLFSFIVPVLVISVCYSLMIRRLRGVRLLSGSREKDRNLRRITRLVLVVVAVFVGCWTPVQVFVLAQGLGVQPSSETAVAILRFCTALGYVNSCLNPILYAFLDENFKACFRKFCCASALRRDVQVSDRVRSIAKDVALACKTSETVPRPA
# T6 sequence (Q99705 whole entry): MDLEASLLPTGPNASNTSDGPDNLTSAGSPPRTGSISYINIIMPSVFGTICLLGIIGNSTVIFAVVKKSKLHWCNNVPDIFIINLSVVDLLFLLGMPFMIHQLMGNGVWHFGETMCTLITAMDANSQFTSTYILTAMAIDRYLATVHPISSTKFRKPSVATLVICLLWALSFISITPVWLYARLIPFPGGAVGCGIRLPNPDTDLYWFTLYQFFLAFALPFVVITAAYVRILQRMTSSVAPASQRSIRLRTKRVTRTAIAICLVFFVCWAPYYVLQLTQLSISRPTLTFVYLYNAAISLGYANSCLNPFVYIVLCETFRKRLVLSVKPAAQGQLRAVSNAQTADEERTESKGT
# T1 sequence (P41143 whole entry): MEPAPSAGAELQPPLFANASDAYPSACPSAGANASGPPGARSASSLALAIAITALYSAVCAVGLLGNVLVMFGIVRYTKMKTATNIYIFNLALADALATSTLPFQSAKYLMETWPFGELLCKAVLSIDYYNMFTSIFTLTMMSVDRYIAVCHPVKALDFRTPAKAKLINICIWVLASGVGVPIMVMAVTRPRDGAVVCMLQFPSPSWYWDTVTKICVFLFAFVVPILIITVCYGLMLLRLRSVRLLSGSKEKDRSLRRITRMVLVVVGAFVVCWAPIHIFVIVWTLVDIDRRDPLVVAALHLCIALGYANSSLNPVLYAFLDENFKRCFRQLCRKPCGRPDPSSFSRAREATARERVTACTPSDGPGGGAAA
Compound,A1: inhibition of radioligand binding (Human δ-opioid (DOP)),A2: inhibition of radioligand binding (Human κ-Opioid (KOP)),A3: inhibition of radioligand binding (Human Melanocortin (MC3)),A4: inhibition of radioligand binding (Human Melanocortin (MC4)),A5: inhibition of radioligand binding (Human melanocortin (MC5)),A6: inhibition of radioligand binding [1],A7: inhibition of radioligand binding (Human μ-opioid (MOP)),A8: inhibition of radioligand binding (Human neurokinin (NK1)),A9: inhibition of radioligand binding [2],A10: inhibition of radioligand binding (Human opioid (ORL1)),A11: inhibition of radioligand binding (Mouse urotensin (mUR2))
COCC1OC(OCCc2ccccc2)C(NC(=O)CN)C(OCc2ccc(Cl)cc2)C1O (stereo not drawn) [compound 219],− (“−” indicates less than 50% inhibition at 10 μM),− (“−” indicates less than 50% inhibition at 10 μM),− (“−” indicates less than 50% inhibition at 10 μM),− (“−” indicates less than 50% inhibition at 10 μM),+ (“+” indicates greater than 50% inhibition at 10 μM),− (“−” indicates less than 50% inhibition at 10 μM),− (“−” indicates less than 50% inhibition at 10 μM),+ (“+” indicates greater than 50% inhibition at 10 μM),− (“−” indicates less than 50% inhibition at 10 μM),− (“−” indicates less than 50% inhibition at 10 μM),− (“−” indicates less than 50% inhibition at 10 μM)
COCC1OC(OCCc2ccccc2)C(NC(=O)CNC(=N)N)C(OCc2ccc(Cl)cc2)C1O (stereo not drawn) [compound 220],− (“−” indicates less than 50% inhibition at 10 μM),− (“−” indicates less than 50% inhibition at 10 μM),+ (“+” indicates greater than 50% inhibition at 10 μM),+ (“+” indicates greater than 50% inhibition at 10 μM),+ (“+” indicates greater than 50% inhibition at 10 μM),− (“−” indicates less than 50% inhibition at 10 μM),− (“−” indicates less than 50% inhibition at 10 μM),+ (“+” indicates greater than 50% inhibition at 10 μM),− (“−” indicates less than 50% inhibition at 10 μM),− (“−” indicates less than 50% inhibition at 10 μM),− (“−” indicates less than 50% inhibition at 10 μM)
COCC1OC(OCCc2ccccc2)C(NC(=O)CCN)C(OCc2ccc(Cl)cc2)C1O (stereo not drawn) [compound 221],− (“−” indicates less than 50% inhibition at 10 μM),− (“−” indicates less than 50% inhibition at 10 μM),− (“−” indicates less than 50% inhibition at 10 μM),− (“−” indicates less than 50% inhibition at 10 μM),+ (“+” indicates greater than 50% inhibition at 10 μM),− (“−” indicates less than 50% inhibition at 10 μM),− (“−” indicates less than 50% inhibition at 10 μM),+ (“+” indicates greater than 50% inhibition at 10 μM),− (“−” indicates less than 50% inhibition at 10 μM),− (“−” indicates less than 50% inhibition at 10 μM),− (“−” indicates less than 50% inhibition at 10 μM)
COCC1OC(OCCc2ccccc2)C(NC(=O)CCCN)C(OCc2ccc(Cl)cc2)C1O (stereo not drawn) [compound 222],− (“−” indicates less than 50% inhibition at 10 μM),− (“−” indicates less than 50% inhibition at 10 μM),− (“−” indicates less than 50% inhibition at 10 μM),− (“−” indicates less than 50% inhibition at 10 μM),+ (“+” indicates greater than 50% inhibition at 10 μM),− (“−” indicates less than 50% inhibition at 10 μM),− (“−” indicates less than 50% inhibition at 10 μM),+ (“+” indicates greater than 50% inhibition at 10 μM),− (“−” indicates less than 50% inhibition at 10 μM),− (“−” indicates less than 50% inhibition at 10 μM),− (“−” indicates less than 50% inhibition at 10 μM)
COCC1OC(OCCc2ccccc2)C(NC(=O)CCCNC(=N)N)C(OCc2ccc(Cl)cc2)C1O (stereo not drawn) [compound 223],− (“−” indicates less than 50% inhibition at 10 μM),− (“−” indicates less than 50% inhibition at 10 μM),− (“−” indicates less than 50% inhibition at 10 μM),+ (“+” indicates greater than 50% inhibition at 10 μM),+ (“+” indicates greater than 50% inhibition at 10 μM),+ (“+” indicates greater than 50% inhibition at 10 μM),− (“−” indicates less than 50% inhibition at 10 μM),+ (“+” indicates greater than 50% inhibition at 10 μM),− (“−” indicates less than 50% inhibition at 10 μM),− (“−” indicates less than 50% inhibition at 10 μM),− (“−” indicates less than 50% inhibition at 10 μM)
COCC1OC(OCCc2ccccc2)C(NC(=O)CN)C(OCc2ccc(-c3ccccc3)cc2)C1O (stereo not drawn) [compound 224],− (“−” indicates less than 50% inhibition at 10 μM),− (“−” indicates less than 50% inhibition at 10 μM),− (“−” indicates less than 50% inhibition at 10 μM),− (“−” indicates less than 50% inhibition at 10 μM),− (“−” indicates less than 50% inhibition at 10 μM),− (“−” indicates less than 50% inhibition at 10 μM),− (“−” indicates less than 50% inhibition at 10 μM),+ (“+” indicates greater than 50% inhibition at 10 μM),− (“−” indicates less than 50% inhibition at 10 μM),− (“−” indicates less than 50% inhibition at 10 μM),− (“−” indicates less than 50% inhibition at 10 μM)

# Reference: patent US20080009418A1, “Selective Inhibitors” (Alchemia LTD., priority 2004, published 2008)
